The values below come from patent US20230348401A1, “Inhibitors of Glucose-6-phosphate Dehydrogenase and Uses Thereof” (The Trustees of Princeton University, priority 2020, published 2023).

The subject of one test is human neutrophils. Briefly: Neutrophil oxidative burst assay (human). To be noted: PMA, 50 µM. Format: cell-based. As for the experimental part:
Human neutrophils were isolated from 8 ml of blood collected from healthy donors following the protocol approved by the University of Wisconsin Institutional Review Board (Protocol No. 2019-1031-CP001). Neutrophils were purified using the MACSxpress Whole Blood Neutrophil Isolation Kit (Miltenyi Biotec 130-104-434) followed by erythrocyte depletion (Miltenyi Biotec 130-098-196) according to the manufacturer’s instructions.
Suspended neutrophils were plated in culture wells pre-coated with CELL-TAK™ (Corning), spun at 200 × g for 1 minute with minimal acceleration/deceleration, and then incubated for 1 hour at 37° C. Murine neutrophils were plated at 2×10^5 cells/well in RPMI 1640 media without sodium bicarbonate. Human neutrophils were plated at 5×10^4 cells/well in RPMI 1640 media supplemented with 0.1% human serum albumin. Inhibitor (G6PDi-1, 50 µM) or vehicle control were added just prior to starting the assay. Mouse neutrophils were also treated with rotenone (0.5 µM, BioVision) + antimycin A (0.5 µM, BioVision) at t = 20 minutes. Oxidative burst was stimulated with PMA (100 nM, Cayman Chemical); oxygen consumption rate was measured using the XF-96e extracellular flux analyzer (Seahorse Bioscience).

In test [1] the target is T1, G6PD (Homo sapiens, UniProt P11413). Description: G6PD enzymatic activity by LC-MS (6-pg production). The format is biochemical. To be noted: orthogonal LC-MS assay. Also noted: Partially truncated human G6PD (residues 28-515, Uniprot ID P11413); His6 with thrombin cleavage site (N, cleaved yes); made in house; host or cells: Escherichia coli BL21(DE3)pLysS. As for the experimental part: Aliquots of reaction mixture were collected at indicated time points and rapidly quenched by diluting (1:5) into methanol precooled on dry ice. The mixtures were centrifuged at 13,000 rcf for 20 minutes at 4° C., and the resulting supernatants were diluted (1:20) into 40:40:20 methanol/ acetonitrile/ water and analyzed by LC-MS.

In the next test the test system is CD8+ and CD4+ T cells. Briefly: Intracellular ROS (CellROX green). The format is cell-based, mouse. To be noted: two hours. As for the experimental part: For measuring intracellular ROS levels, cells were incubated for 2 hours in the presence of increasing concentrations of G6PDi-1 and then stained for ROS and viability using CellROX Green Flow Cytometry Assay Kit following manufacturer instructions. In some experiments, n-acetyl cysteine (1 mM), galactose oxidase (0.045 U/mL) + galactose (500 µM), or potassium superoxide (0.5 µg/mL) were added to the culture media at the same time the drug and/or PMA and ionomycin were added. All flow cytometry was analyzed with an LSR II (BDbiosciences) using standard filter sets and FCS express 6 flow cytometry software (De Novo Software).

The next test relates to active CD8+ T cells. Description: Absolute oxPPP flux by 14CO2 emission. Format: cell-based, mouse. To be noted: 10 uM. Here is the method: Glucose oxidation flux through oxPPP was determined from difference in the rate of ^14CO2 released from [1-^14C]-glucose and [6-^14C]-glucose, as previously described with some modification. RPMI 1640 media without sodium bicarbonate was supplemented with 0.74 g/L of NaHCO3, 2.5 mM HEPES pH 7.4, 10% dFBS, and 1% of either 1-^14C-glucose or 6-^14C-glucose. Three million primary mouse naïve (rested in IL-7) or active CD8+ T cells (in the presence of IL2 and 0.1% DMSO or 10 uM G6PDi-1) were incubated for 4 hours in a sealed 12.5 cm^2 flask. To facilitate the collection of ^14CO2, 100 µL of a 10 M KOH solution was introduced into the sealed flask using a center well for incubation flask (8823200000, DWK Life Sciences). The assay was stopped by injection of 1 mL 1 M HCL, and the KOH solution then transferred to scintillation vials containing 10 mL scintillation solution for counting. The signal was corrected for the percentage of radioactive tracer in the medium. OxPPP flux is calculated as follows: […]

The test system of test [2] is active CD8+ or CD4+ cells. Briefly: Intracellular cytokines in active T cells after PMA and ionomycin. Format: cell-based, mouse. Here is the method:
(§1) To analyze intracellular cytokines, active T cells were re-stimulated with PMA (20 ng/ml) and ionomycin (1 µg/ml) in the presence of GolgiStop and increasing concentrations of G6PDi-1. After a 6-hour incubation period, cells were collected, washed with PBS and stained with the viability dye Live/Dead Aqua. Cells were then washed with staining buffer and stained for surface markers: CD4 (APC-Cy7, clone RM4-5,), CD8a (PerCP-Cy5.5, clone 53-6.7). Cells were then fixed and permeabilized and stained for intracellular cytokines: IFN-γ (FITC, clone XMG1.2), TNFα (PE-Cyanine7, clone MP6-XT22) and IL-2 (PE, clone JES6-5H4). To analyze intracellular cytokines, mature macrophages were stimulated with LPS (100 ng/mL) + IFNγ (20 ng/mL) in the presence of GolgiStop and increasing concentrations of G6PDi-1. After a 6-hour incubation period, cells were collected, washed with PBS and stained with the viability dye Live/Dead Aqua. Cells were then fixed and permeabilized and stained for intracellular cytokines: TNFα (PE-Cyanine7, clone MP6-XT22) and IL-10 (V450, clone JES5-16E3).

Test [3] deals with bone marrow derived macrophages. Briefly: Intracellular cytokines in bone marrow-derived macrophages. Format: cell-based, mouse. As for the experimental part: Mouse bone marrow monocyte/macrophage progenitors were isolated from femur and tibia and cultured in BMM media (DMEM supplemented with 10% FBS, 20% L929-conditioned media, 100 U/ml penicillin, and 100 µg/ml streptomycin). Expression of CD11b and F4/80 was checked by flow cytometry after 6 days in culture. Mature macrophages were either maintained in BMM media (M0 macrophages) or stimulated overnight with LPS (100 ng/mL) + IFNγ (20 ng/mL) for M1 activation or IL-4 (20 ng/mL) for M2 activation.
as §1, with “After a 6-hour incubation period, cells were collected, washed with PBS and stained with the viability dye Live/Dead Aqua. Cells were then fixed and permeabilized and stained for intracellular cytokines: TNFα (PE-Cyanine7, clone MP6-XT22) and IL-10 (V450, clone JES5-16E3).” left out

For a further test, the system named is colony formation. Description: Colony formation. Format: cell-based. The note with it: dose-response; rescued by exogenous antioxidants.
For test [4], the target named is T1, G6PD. Briefly: G6PD enzymatic activity by diaphorase-coupled assay.

T1 sequence (P11413 28-515): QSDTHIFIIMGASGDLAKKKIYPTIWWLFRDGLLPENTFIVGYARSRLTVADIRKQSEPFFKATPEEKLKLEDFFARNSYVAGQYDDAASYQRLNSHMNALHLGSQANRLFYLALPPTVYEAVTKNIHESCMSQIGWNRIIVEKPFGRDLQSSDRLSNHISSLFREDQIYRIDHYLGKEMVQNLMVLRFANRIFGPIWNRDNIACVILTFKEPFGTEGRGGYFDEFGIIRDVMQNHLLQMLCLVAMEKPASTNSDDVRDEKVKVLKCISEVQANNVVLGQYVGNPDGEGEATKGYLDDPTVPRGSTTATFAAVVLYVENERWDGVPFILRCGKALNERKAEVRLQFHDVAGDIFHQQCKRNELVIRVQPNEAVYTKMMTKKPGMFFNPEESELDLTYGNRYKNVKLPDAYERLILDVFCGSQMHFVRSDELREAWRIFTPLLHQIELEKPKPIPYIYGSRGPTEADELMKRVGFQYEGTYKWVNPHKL

Usually IC50 stands for the midpoint of a concentration-inhibition curve. For `N#Cc1cc(Nc2ncc3c(n2)CCCCC3=O)cs1` [Compound 2, 4-([5-oxo-6H,7H,8H,9H-cyclohepta[d]pyrimidin-2-yl]amino)thiophene-2-carbonitrile], in the test on human neutrophils, the “oxidative burst (oxygen consumption rate)” value was “decreased oxidative burst”. The “6-pg production by recombinant human G6PD” value on G6PD [1] is on record as “demonstrated in vitro inhibition of G6PD activity”. For the same molecule, in the test on CD8+ and CD4+ T cells, the reactive oxygen species result is “elevated reactive oxygen species”. Moreover, the “absolute oxPPP flux” value with active CD8+ T cells is “blocked”. The cytokine production entry in test [2] (CD8+ and CD4+ T cells, PMA and ionomycin, 6 h) is “blocked cytokine production”. Also, the “IFNγ mRNA” value in test [2] (active CD8+ T cells) is recorded as “decreased”. The macrophage cytokine production result in test [3] (classically activated macrophages (MΦ-1)) is on record as “minimally affecting”. Further, the “NADPH, LPS-induced pro-inflammatory cytokine production, iNOS upregulation” value in test [3] (macrophages) was “did not decrease”. In the test with colony formation, the colony formation result is recorded as “dose-dependent decrease”. In addition, the “mode of binding to G6PD” value on G6PD [4] (competition assays against both substrates, in vitro dilution experiments) is “non-competitively and reversibly”. For the same molecule, on G6PD [4] (read-out: IC50 (half-maximal inhibitory constant) against human G6PD, coupled enzymatic assay, recombinant human enzyme), the IC50 was 70 nM.
